In ChEMBL document CHEMBL1201862, “PubChem BioAssay data set” (2004):
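Assay format: 96-well plates, 48-hour exposure. Here, GI50 denotes the concentration required for 50% inhibition of growth.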 Active and inactive are the calls of the source. Rule as the data show it: active = GI50 up to about 1.1 µM and inactive = higher.

Assays:
Test in all cases: DTP human tumour cell line panel, 48 h
[1] = system: 786-0
[2] = system: A549
[3] = system: ACHN
[4] = system: BT-549
[5] = system: CAKI-1
[6] = system: CCRF-CEM
[7] = system: COLO 205
[8] = system: DU-145
[9] = system: EKVX
[10] = system: HCC 2998
[11] = system: HCT-116
[12] = system: HCT-15
[13] = system: HL-60
[14] = system: HOP-62
[15] = system: HOP-92
[16] = system: HT-29
[17] = system: Hs-578T
[18] = system: IGROV-1
[19] = system: K562
[20] = system: KM12
[21] = system: LOX IMVI
[22] = system: M14
[23] = system: MCF7
[24] = system: MDA-MB-231
[25] = system: MDA-MB-435
[26] = system: MDA-N
[27] = system: MOLT-4
[28] = system: Malme-3M
[29] = system: NCI-H23
[30] = system: NCI-H460
[31] = system: NCI-H522
[32] = system: NCI/ADR-RES
[33] = system: OVCAR-3
[34] = system: OVCAR-4
[35] = system: OVCAR-5
[36] = system: OVCAR-8
[37] = system: PC-3
[38] = system: RPMI-8226
[39] = system: SF-268
[40] = system: SF-295
[41] = system: SF-539
[42] = system: SK-MEL-28
[43] = system: SK-MEL-2
[44] = system: SK-MEL-5
[45] = system: SK-OV-3
[46] = system: SN12C
[47] = system: SNB-19
[48] = system: SNB-75
[49] = system: SR
[50] = system: SW-620
[51] = system: T47D
[52] = system: TK-10
[53] = system: U-251
[54] = system: UACC-257
[55] = system: UACC-62
[56] = system: UO-31
[57] = system: A498
[58] = system: NCI-H226
[59] = system: RXF 393

Q: Which results are given for `O=C(CCN1CCOCC1)Nc1ccc2sc3ccccc3c(=O)c2n1`?
A: GI50 [1]: 31.6 µM (inactive); GI50 [2]: 38.9 µM (inactive); GI50 [3]: 35.5 µM (inactive); GI50 [4]: 28.7 µM (inactive); GI50 [5]: 23.6 µM (inactive); GI50 [6]: 19.7 µM (inactive); GI50 [7]: 25 µM (inactive); GI50 [8]: 47 µM (inactive); GI50 [9]: 58.2 µM (inactive); GI50 [10]: 33.9 µM (inactive); GI50 [11]: 23 µM (inactive); GI50 [12]: 33.9 µM; GI50 [13]: > 100 µM (inactive); GI50 [14]: 44.7 µM (inactive); GI50 [15]: 45.3 µM (inactive); GI50 [16]: > 100 µM (inactive); GI50 [17]: 36.4 µM (inactive); GI50 [18]: 30.1 µM (inactive); GI50 [19]: 8.49 µM (inactive); GI50 [20]: 50.4 µM (inactive); GI50 [21]: 19.6 µM (inactive); GI50 [22]: 37.8 µM (inactive); GI50 [23]: 49.8 µM (inactive); GI50 [24]: 35.6 µM (inactive); GI50 [25]: 42.4 µM (inactive); GI50 [26]: 23.3 µM (inactive); GI50 [27]: > 10 µM (inactive); GI50 [28]: 20.7 µM (inactive); GI50 [29]: 49.1 µM (inactive); GI50 [30]: 37.8 µM (inactive); GI50 [31]: 13.2 µM (inactive); GI50 [32]: 43.4 µM (inactive); GI50 [33]: 47.9 µM (inactive); GI50 [34]: 61.1 µM (inactive); GI50 [35]: > 100 µM (inactive); GI50 [36]: 35.9 µM (inactive); GI50 [37]: 18.2 µM (inactive); GI50 [38]: 28 µM (inactive); GI50 [39]: 52.2 µM (inactive); GI50 [40]: 82.4 µM (inactive); GI50 [41]: 60.5 µM (inactive); GI50 [42]: 53.5 µM (inactive); GI50 [43]: 64 µM (inactive); GI50 [44]: 27.1 µM (inactive); GI50 [45]: 47.6 µM (inactive); GI50 [46]: 35 µM (inactive); GI50 [47]: 49.2 µM (inactive); GI50 [48]: 19.6 µM (inactive); GI50 [49]: 44.3 µM (inactive); GI50 [50]: 27.4 µM (inactive); GI50 [51]: 20.6 µM (inactive); GI50 [52]: 37.4 µM (inactive); GI50 [53]: 42.9 µM (inactive); GI50 [54]: 62.2 µM (inactive); GI50 [55]: 34.8 µM (inactive); GI50 [56]: 25.8 µM (inactive)

Q: `Cn1c(=O)c2c(no[n+]2[O-])n(C)c1=O` was tested. Which GI50 [1] did it give?
A: The GI50 was 23.8 µM (inactive).

Q: What about the GI50 [57] of the same molecule?
A: Its GI50 is 18.2 µM (inactive).

Q: What about the GI50 [2] of the same molecule?
A: Its GI50 is > 100 µM (inactive).

Q: And the GI50 [3]?
A: Its GI50 is > 100 µM (inactive).

Q: What about the GI50 [4] of the same molecule?
A: The GI50 was 21.7 µM (inactive).

Q: And the GI50 [5]?
A: The GI50 was 19.3 µM (inactive).

Q: And the GI50 [6]?
A: Its GI50 is > 100 µM (inactive).

Q: What about the GI50 [7] of the same molecule?
A: Its GI50 is 23 µM (inactive).

Q: And the GI50 [9]?
A: The GI50 was 28.4 µM (inactive).

Q: And the GI50 [10]?
A: The GI50 was > 100 µM (inactive).

Q: What about the GI50 [11] of the same molecule?
A: Its GI50 is > 100 µM (inactive).

Q: What about the GI50 [12] of the same molecule?
A: The GI50 was > 100 µM.

Q: What about the GI50 [14] of the same molecule?
A: Its GI50 is 18.4 µM (inactive).

Q: What about the GI50 [15] of the same molecule?
A: Its GI50 is 19.1 µM (inactive).

Q: And the GI50 [16]?
A: The GI50 was 31.2 µM (inactive).

Q: And the GI50 [17]?
A: Its GI50 is 22.6 µM (inactive).

Q: What about the GI50 [18] of the same molecule?
A: The GI50 was 22.2 µM (inactive).

Q: What about the GI50 [19] of the same molecule?
A: The GI50 was > 100 µM (inactive).

Q: And the GI50 [20]?
A: The GI50 was 52 µM (inactive).

Q: And the GI50 [21]?
A: The GI50 was > 100 µM (inactive).

Q: What about the GI50 [22] of the same molecule?
A: Its GI50 is > 100 µM (inactive).

Q: What about the GI50 [23] of the same molecule?
A: Its GI50 is > 100 µM (inactive).

Q: And the GI50 [24]?
A: The GI50 was 21.7 µM (inactive).

Q: What about the GI50 [25] of the same molecule?
A: The GI50 was 20 µM (inactive).

Q: What about the GI50 [26] of the same molecule?
A: The GI50 was 22.4 µM (inactive).

Q: What about the GI50 [27] of the same molecule?
A: The GI50 was > 100 µM (inactive).

Q: And the GI50 [28]?
A: Its GI50 is 18.5 µM (inactive).

Q: And the GI50 [58]?
A: The GI50 was 18.2 µM (inactive).

Q: And the GI50 [29]?
A: Its GI50 is 22.4 µM (inactive).

Q: And the GI50 [30]?
A: Its GI50 is > 100 µM (inactive).

Q: And the GI50 [31]?
A: The GI50 was 16.1 µM (inactive).

Q: What about the GI50 [32] of the same molecule?
A: The GI50 was 22.9 µM (inactive).

Q: And the GI50 [33]?
A: The GI50 was > 100 µM (inactive).

Q: What about the GI50 [34] of the same molecule?
A: Its GI50 is 59.8 µM (inactive).

Q: And the GI50 [35]?
A: Its GI50 is > 100 µM (inactive).

Q: And the GI50 [36]?
A: Its GI50 is 19.1 µM (inactive).

Q: And the GI50 [37]?
A: Its GI50 is > 100 µM (inactive).

Q: What about the GI50 [38] of the same molecule?
A: Its GI50 is > 100 µM (inactive).

Q: What about the GI50 [59] of the same molecule?
A: The GI50 was 27.7 µM (inactive).

Q: What about the GI50 [39] of the same molecule?
A: The GI50 was 25.6 µM (inactive).

Q: What about the GI50 [40] of the same molecule?
A: The GI50 was 52.4 µM (inactive).

Q: And the GI50 [41]?
A: The GI50 was 63.2 µM (inactive).

Q: What about the GI50 [43] of the same molecule?
A: The GI50 was 45 µM (inactive).

Q: What about the GI50 [44] of the same molecule?
A: Its GI50 is 42.6 µM (inactive).

Q: And the GI50 [45]?
A: The GI50 was 53.5 µM (inactive).

Q: What about the GI50 [46] of the same molecule?
A: Its GI50 is 39.3 µM (inactive).

Q: And the GI50 [47]?
A: The GI50 was 22.3 µM (inactive).

Q: And the GI50 [48]?
A: The GI50 was 49.7 µM (inactive).

Q: What about the GI50 [49] of the same molecule?
A: Its GI50 is > 100 µM (inactive).

Q: What about the GI50 [50] of the same molecule?
A: The GI50 was 25.4 µM (inactive).

Q: What about the GI50 [51] of the same molecule?
A: Its GI50 is > 100 µM (inactive).

Q: What about the GI50 [52] of the same molecule?
A: The GI50 was 18.9 µM (inactive).

Q: What about the GI50 [53] of the same molecule?
A: Its GI50 is 22.6 µM (inactive).

Q: What about the GI50 [54] of the same molecule?
A: The GI50 was 36.9 µM (inactive).

Q: And the GI50 [55]?
A: Its GI50 is 19.5 µM (inactive).

Q: And the GI50 [56]?
A: Its GI50 is 31 µM (inactive).
